# Experimental data: article PMC10077475, “DG9-conjugated morpholino rescues phenotype in SMA mice by reaching the CNS via a subcutaneous administration” (JCI Insight, 2023)
# System: SMN protein
# Assay: SMN protein levels by Western blotting in tissues of severe SMA mice
# Format: in vivo, mouse
# Protocol: To evaluate the change of FL-SMN2 expression relative to Δ7 SMN2 transcripts, we used real-time quantitative PCR (RT-qPCR) at PD7; the mice were treated with DG9-PMO at PD0. In both doses, DG9-PMO treatment led to a 4- to 30-fold higher FL-SMN2 expression than NT control in both peripheral and CNS tissues (Figure 2A and Supplemental Figure 3A). It also led to a ~5-fold increase in FL-SMN2 expression when compared with unconjugated PMO, MOE, and R6G-PMO treatments in the majority of the tissues (Figure 2A, Supplemental Figure 3A, and Supplemental Figure 1F). […] SMN levels were higher in CNS tissues in the DG9-PMO–treated than MOE-treated mice, though no statistical significance was seen. […] SMN levels were similar in DG9-PMO and MOE in the tissues collected from mice at PD30.
# Total protein was extracted from frozen tissues harvested at PD7 or PD30 by using RIPA buffer (MilliporeSigma) with cOmplete, Mini, EDTA-free protease inhibitor cocktail (MilliporeSigma). The protein concentration was quantified using the Pierce BCA Protein Assay Kit (Thermo Fisher Scientific). […] The bands were detected using the Amersham ECL Select Western Blotting Detection Kit (GE Healthcare) and visualized by the ChemiDoc Touch Imaging system (Bio-Rad). […]
structure (smiles),measurement,setting,value
CC(=O)N[C@@H](Cc1ccc(O)cc1)C(=O)N[C@@H](C)C(=O)N[C@H](CCCNC(=N)N)C(=O)N[C@H](C(=O)N[C@@H](CCCNC(=N)N)C(=O)N[C@@H](CCCNC(=N)N)C(=O)N[C@H](CCCNC(=N)N)C(=O)NCC(=O)N1CCC[C@H]1C(=O)N[C@@H](CCCNC(=N)N)C(=O)NCC(=O)N[C@@H](Cc1ccc(O)cc1)C(=O)N[C@@H](C)C(=O)N[C@H](CCCNC(=N)N)C(=O)N[C@H](C(=O)N[C@@H](CCCNC(=N)N)C(=O)N[C@@H](CCCNC(=N)N)C(=O)N[C@H](CCCNC(=N)N)C(=O)NCC(=O)N1CCC[C@H]1C(=O)N[C@@H](CCCNC(=N)N)C(=O)N[C@H](CCCNC(=N)N)C(=O)N1C[C@@H](COP(=O)(N(C)C)N2C[C@@H](COP(=O)(N(C)C)N3C[C@@H](COP(=O)(N(C)C)N4C[C@@H](COP(=O)(N(C)C)N5C[C@@H](COP(=O)(N(C)C)N6C[C@@H](COP(=O)(N(C)C)N7C[C@@H](COP(=O)(N(C)C)N8C[C@@H](COP(=O)(N(C)C)N9C[C@@H](COP(=O)(N(C)C)N%10C[C@@H](COP(=O)(N(C)C)N%11C[C@@H](COP(=O)(N(C)C)N%12C[C@@H](COP(=O)(N(C)C)N%13C[C@@H](COP(=O)(N(C)C)N%14C[C@@H](COP(=O)(N(C)C)N%15C[C@@H](COP(=O)(N(C)C)N%16C[C@@H](COP(=O)(N(C)C)N%17C[C@@H](COP(=O)(N(C)C)N%18C[C@@H](COP(=O)(N(C)C)N%19CCC(C(N)=O)CC%19)O[C@@H](n%19cc(C)c(=O)[nH]c%19=O)C%18)O[C@@H](n%18ccc(N)nc%18=O)C%17)O[C@@H](n%17cnc%18c(N)ncnc%18%17)C%16)O[C@@H](n%16ccc(N)nc%16=O)C%15)O[C@@H](n%15cc(C)c(=O)[nH]c%15=O)C%14)O[C@@H](n%14cc(C)c(=O)[nH]c%14=O)C%13)O[C@@H](n%13cc(C)c(=O)[nH]c%13=O)C%12)O[C@@H](n%12ccc(N)nc%12=O)C%11)O[C@@H](n%11cnc%12c(N)ncnc%12%11)C%10)O[C@@H](n%10cc(C)c(=O)[nH]c%10=O)C9)O[C@@H](n9cnc%10c(N)ncnc%109)C8)O[C@@H](n8cnc9c(N)ncnc98)C7)O[C@@H](n7cc(C)c(=O)[nH]c7=O)C6)O[C@@H](n6cnc7c(=O)[nH]c(N)nc76)C5)O[C@@H](n5ccc(N)nc5=O)C4)O[C@@H](n4cc(C)c(=O)[nH]c4=O)C3)O[C@@H](n3cnc4c(=O)[nH]c(N)nc43)C2)O[C@@H](n2cnc3c(=O)[nH]c(N)nc32)C1)C(C)C)C(C)C (some centres unmarked) [DG9-PMO],SMN expression at PD30 (Western blotting),"40 mg/kg s.c. at PD0, tissues at PD30",sustained levels of SMN expression at PD30
same,SMN protein levels (Western blotting),"s.c. at PD0, tissues at PD7, relative to β-tubulin",increased SMN protein levels in both the peripheral and CNS tissues
